Data on 56 compounds can be found in patent publication US20220267260A1, “COMPOUNDS CONTAINING A SULFONIC GROUP AS KAT INHIBITORS” (Epizyme, Inc., priority 2016, published 2022).

SMILES strings stand for the structures.

The term IC50 denotes the concentration that inhibits the measured activity by half.

Experiment [1] addresses T1, KAT5 (Homo sapiens, UniProt Q92993).
T1 construct: His-TEV tag (N, cleaved yes); made in house
Nature of the experiment: KAT5 enzyme inhibition assay (SAMDI mass spectrometry). Type of experiment: biochemical. The note with it: His-TEV-FL KAT5-Flag enzyme construct.

In experiment [2] the target is T2, KAT6A (Homo sapiens, UniProt Q92794).
T2 construct: His-TEV tag (N, cleaved yes); made in house
T2 sequence (Q92794 with tags, fused parts or gaps): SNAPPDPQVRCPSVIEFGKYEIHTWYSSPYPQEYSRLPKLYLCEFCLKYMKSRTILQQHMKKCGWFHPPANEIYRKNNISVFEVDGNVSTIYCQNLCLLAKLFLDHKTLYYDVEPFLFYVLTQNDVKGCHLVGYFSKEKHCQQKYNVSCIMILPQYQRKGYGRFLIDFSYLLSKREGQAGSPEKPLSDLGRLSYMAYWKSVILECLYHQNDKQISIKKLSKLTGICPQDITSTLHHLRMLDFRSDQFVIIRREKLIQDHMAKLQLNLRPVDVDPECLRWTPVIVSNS
Briefly: KAT6A enzyme inhibition assay (SAMDI mass spectrometry). It counts as biochemical. The following applies: His-TEV-KAT6A 501-784 enzyme construct.

T1 sequence (Q92993 with tags, fused parts or gaps): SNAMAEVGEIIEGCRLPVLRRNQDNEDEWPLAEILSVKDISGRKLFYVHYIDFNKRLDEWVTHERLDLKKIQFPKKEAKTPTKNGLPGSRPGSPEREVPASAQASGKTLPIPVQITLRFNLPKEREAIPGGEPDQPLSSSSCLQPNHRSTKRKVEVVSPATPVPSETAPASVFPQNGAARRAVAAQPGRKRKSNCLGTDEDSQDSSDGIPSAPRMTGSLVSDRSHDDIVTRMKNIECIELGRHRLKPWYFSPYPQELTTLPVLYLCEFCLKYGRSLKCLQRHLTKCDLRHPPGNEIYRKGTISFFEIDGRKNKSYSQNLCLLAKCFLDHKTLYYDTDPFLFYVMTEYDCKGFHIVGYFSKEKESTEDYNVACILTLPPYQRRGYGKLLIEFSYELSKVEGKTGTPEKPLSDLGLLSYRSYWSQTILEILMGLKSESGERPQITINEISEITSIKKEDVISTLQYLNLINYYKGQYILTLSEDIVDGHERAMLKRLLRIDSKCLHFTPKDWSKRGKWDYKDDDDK

With `Cc1c(-c2ccccc2)ccc(F)c1C(=O)NNS(=O)(=O)CC(Cc1ccccc1)C(C)C` (stereo not shown) [Compound I-268], the IC50 in experiment [1] and in experiment [2] was 10 to 50 µM throughout.
Consider `Cc1cc(-c2ccccc2F)cc(C(=O)NNS(=O)(=O)CC2CCCCC2)c1F` [Compound I-269], for which the IC50 is ≤ 10 µM in experiment [1] and 10 to 50 µM in experiment [2].
On the same counts, the results for `COCCOc1cccc(-c2cc(C)c(F)c(C(=O)NNS(=O)(=O)CC3CCCCC3)c2)c1` [Compound I-270] are ≤ 10 µM and 10 to 50 µM.
On the same counts, the results for `Cc1cc(-c2ccccc2F)cc(C(=O)NNS(=O)(=O)c2ccccc2)c1F` [Compound I-271] are ≤ 10 µM and ≤ 10 µM.
On the same counts, the results for `COCCOc1cccc(-c2cc(C)c(F)c(C(=O)NNS(=O)(=O)C3CCCCC3)c2)c1` [Compound I-272] are 10 to 50 µM and 50 to 100 µM.
Consider `Cc1cccc(-c2ccc(F)c(C(=O)NNS(=O)(=O)c3ccccc3)c2C)c1` [Compound I-273], for which the IC50 in experiment [1] was > 100 µM; in experiment [2], 50 to 100 µM.
On the same counts, the results for `Cc1cc(-c2cccc(F)c2)cc(C(=O)NNS(=O)(=O)CC2CCCN(C(=O)C3CCC3)C2)c1F` (stereo not shown) [Compound I-274] are ≤ 10 µM and ≤ 10 µM.
On the same counts, the results for `O=C(NNS(=O)(=O)C1CCCCC1)c1c(Cl)ccc(-c2ccccc2)c1Cl` [Compound I-275] are > 100 µM and > 100 µM.
The like results for `Cc1cc(Cl)cc(C(=O)NNS(=O)(=O)CC2CCCCC2)c1F` [Compound I-276] were, in that order, ≤ 10 µM and 10 to 50 µM.
In the case of `COCCN1CCC(C(C)S(=O)(=O)NNC(=O)c2cc(-c3ccccc3)cc(C)c2F)CC1` (stereo not shown) [Compound I-277], the IC50 in experiment [1] and in experiment [2] was 10 to 50 µM throughout.
`Cc1cc(-c2cccc(F)c2)cc(C(=O)NNS(=O)(=O)CC2CCCNC2)c1F` (stereo not shown) [Compound I-278]: the IC50 is 50 to 100 µM in experiment [1] and > 100 µM in experiment [2].
On the same counts, the results for `COCCOc1cccc(-c2cc(C)c(F)c(C(=O)NNS(=O)(=O)c3ccccc3)c2)c1` [Compound I-279] are 10 to 50 µM and ≤ 10 µM.
The like results for `CCC(=O)N1CCCC(CS(=O)(=O)NNC(=O)c2cc(-c3ccccc3)cc(C)c2F)C1` (stereo not shown) [Compound I-280] were, in that order, ≤ 10 µM and ≤ 10 µM.
On the same counts, the results for `Cc1cc(-c2ccccc2)cc(C(=O)NNS(=O)(=O)CC2CCCN(C(=O)C(C)(C)C)C2)c1F` (stereo not shown) [Compound I-281] are ≤ 10 µM and ≤ 10 µM.
Regarding `Cc1cc(-c2ccccc2)cc(C(=O)Nc2n[nH]c3ncccc23)c1F` [Compound I-282], the IC50 fell in the range of 50 to 100 µM in experiment [1] and 10 to 50 µM in experiment [2].
With `Cn1cnc2c(C(=O)NNS(=O)(=O)C3CCCCC3)cc(-c3ccccc3)cc21` [Compound I-283], the IC50 in experiment [1] and in experiment [2] was > 100 µM each time.
Regarding `Nc1ncc(-c2ccc(-c3ccccc3)cc2F)n1S(=O)(=O)c1ccccc1` [Compound I-284], the IC50 in experiment [1] and in experiment [2] was > 100 µM throughout.
In the case of `Cc1cc(-c2cccc(F)c2)cc(C(=O)NNS(=O)(=O)CC2CCCN(C(=O)OC(C)(C)C)C2)c1F` (stereo not shown) [Compound I-285], the IC50 in experiment [1] and in experiment [2] was ≤ 10 µM throughout.
In the case of `Cc1cc(C2CCCN(C)C2)cc(C(=O)NNS(=O)(=O)C2CCCCC2)c1F` (stereo not shown) [Compound I-287], the IC50 in experiment [1] and in experiment [2] was > 100 µM each time.
Consider `Cc1nc(-c2ccccc2)cc(C(=O)NNS(=O)(=O)C2CCCCC2)c1F` [Compound I-288], for which the IC50 in experiment [1] and in experiment [2] was 10 to 50 µM each time.
On to `COCC(=O)N1CCCC(CS(=O)(=O)NNC(=O)c2cc(-c3cccc(F)c3)cc(C)c2F)C1` (stereo not shown) [Compound I-289], for which the IC50 in experiment [1] and in experiment [2] was ≤ 10 µM in each case.
For `C=CCn1nc(NNS(=O)(=O)c2ccccc2)c2ccccc21` [Compound I-290], the IC50 in experiment [1] and in experiment [2] was > 100 µM throughout.
Consider `Cc1nc(-c2cccc(F)c2)cc(C(=O)NNS(=O)(=O)CC2CCCN(C(=O)C3CCC3)C2)c1F` (stereo not shown) [Compound I-291], for which the IC50 in experiment [1] and in experiment [2] was ≤ 10 µM in each case.
Regarding `Cc1cc(-c2cccc(F)c2)cc(C(=O)NNS(=O)(=O)CC2CCCN(C(=O)C(C)C)C2)c1F` (stereo not shown) [Compound I-292], the IC50 in experiment [1] and in experiment [2] was ≤ 10 µM in each case.
With `Cc1cc(Br)cc(C(=O)NNS(=O)(=O)C2CCCCC2)c1F` [Compound I-293], the IC50 is ≤ 10 µM in experiment [1] and 50 to 100 µM in experiment [2].
The like results for `Cc1cc(-c2cccc(F)c2)cc(C(=O)NNS(=O)(=O)CC2CCCN(C(=O)C(C)(C)C)C2)c1F` (stereo not shown) [Compound I-294] were, in that order, ≤ 10 µM and ≤ 10 µM.
On the same counts, the results for `Cc1cnc(CNC(=O)c2cc(-c3ccccc3)cc(C)c2F)[nH]1` [Compound I-295] are > 100 µM and > 100 µM.
The like results for `COCCN1CCCC(CS(=O)(=O)NNC(=O)c2cc(-c3ccccc3)cc(C)c2F)C1` (stereo not shown) [Compound I-297] were, in that order, 10 to 50 µM and ≤ 10 µM.
Consider `COc1cccc(-c2cc(C)c(F)c(C(=O)NNS(=O)(=O)CC3CCCCC3)c2)c1` [Compound I-298], for which the IC50 was ≤ 10 µM in experiment [1] and 10 to 50 µM in experiment [2].
For the compound `Cc1cc(Cl)cc(C(=O)NNS(=O)(=O)C2CCCCC2)c1F` [Compound I-299], the IC50 was in the range of 10 to 50 µM in experiment [1] and 50 to 100 µM in experiment [2].
Consider `CCc1cc(C)c(F)c(C(=O)NNS(=O)(=O)C2CCCCC2)c1` [Compound I-300], for which the IC50 in experiment [1] is 10 to 50 µM; in experiment [2] it was 50 to 100 µM.
On the same counts, the results for `Cc1cccc(-c2cc(C)c(F)c(C(=O)NNS(=O)(=O)C3CCCCC3)c2)c1` [Compound I-301] are 10 to 50 µM and 50 to 100 µM.
The like results for `COc1ccccc1-c1cc(C)c(F)c(C(=O)NNS(=O)(=O)C2CCCCC2)c1` [Compound I-302] were, in that order, 50 to 100 µM and 50 to 100 µM.
The like results for `CC(=O)N1CC(CS(=O)(=O)NNC(=O)c2cc(-c3ccccc3)cc(C)c2F)C1` [Compound I-303] were, in that order, 10 to 50 µM and ≤ 10 µM.
For `COc1ccccc1-c1cc(C)c(F)c(C(=O)NNS(=O)(=O)c2ccccc2)c1` [Compound I-304], the IC50 in experiment [1] is 50 to 100 µM; in experiment [2] it was ≤ 10 µM.
The like results for `O=C(NNS(=O)(=O)c1cccc(Cl)c1)c1c(F)ccc(-c2cn[nH]c2)c1F` [Compound I-305] were, in that order, > 100 µM and 10 to 50 µM.
On the same counts, the results for `O=C(NNS(=O)(=O)C1CCCCC1)c1cc(-c2ccccc2)cc(Cl)c1F` [Compound I-306] are ≤ 10 µM and ≤ 10 µM.
On to `Cc1cc(-c2ccccc2)cc(C(=O)NNS(=O)(=O)C(C)C2CCN(C(=O)OC(C)(C)C)CC2)c1F` (stereo not shown) [Compound I-307], for which the IC50 in experiment [1] is 10 to 50 µM; in experiment [2], ≤ 10 µM.
On the same counts, the results for `Cc1c(-c2ccccc2)ccc(Cl)c1C(=O)NNS(=O)(=O)C1CCCCC1` [Compound I-308] are 50 to 100 µM and > 100 µM.
In the case of `Cc1cc(-c2ccccc2)cc(C(=O)NNc2ncccn2)c1F` [Compound I-309], the 50% inhibitory concentration (IC50) in experiment [1] and in experiment [2] was > 100 µM each time.
Regarding `COCC(=O)N1CC(CS(=O)(=O)NNC(=O)c2cc(-c3ccccc3)cc(C)c2F)C1` [Compound I-310], the IC50 was 10 to 50 µM in experiment [1] and ≤ 10 µM in experiment [2].
The like results for `COc1c(C)cc(-c2ccccc2)cc1C(=O)NNS(=O)(=O)C1CCCCC1` [Compound I-311] were, in that order, > 100 µM and > 100 µM.
The like results for `O=C(NNS(=O)(=O)C1CCCCC1)c1c(F)ccc(-c2ccccc2)c1Cl` [Compound I-312] were, in that order, > 100 µM and > 100 µM.
On the same counts, the results for `Cc1cc(-c2ccccc2)cc(C(=O)NNS(=O)(=O)C(C)C2CCCN(C(=O)OC(C)(C)C)C2)c1F` (stereo not shown) [Compound I-313] are ≤ 10 µM and 10 to 50 µM.
With `Cc1cc(-c2ccccc2)cc(C(=O)NNS(=O)(=O)C(C)C2CCCNC2)c1F` (stereo not shown) [Compound I-314], the IC50 in experiment [1] and in experiment [2] was > 100 µM in each case.
Turning to `COc1cc(-c2ccccc2)cc(C(=O)NNS(=O)(=O)C2CCCCC2)c1F` [Compound I-315], the IC50 in experiment [1] and in experiment [2] was 10 to 50 µM throughout.
Take `Cc1c(C(=O)NNS(=O)(=O)c2cccc(Cl)c2)cnn1-c1ccccc1` [Compound I-316]: the IC50 in experiment [1] and in experiment [2] was > 100 µM throughout.
`Cc1cc(-c2cc(F)cc(F)c2)cc(C(=O)NNS(=O)(=O)C2CCCCC2)c1F` [Compound I-317]: the IC50 in experiment [1] is ≤ 10 µM; in experiment [2], 10 to 50 µM.
Regarding `Cc1cc(-c2ccccc2Cl)cc(C(=O)NNS(=O)(=O)C2CCCCC2)c1F` [Compound I-318], the concentration for half-maximal inhibition (IC50) in experiment [1] and in experiment [2] was 50 to 100 µM throughout.
For the compound `Cc1cc(-c2ccc(F)cc2)cc(C(=O)NNS(=O)(=O)C2CCCCC2)c1F` [Compound I-319], the IC50 in experiment [1] is 10 to 50 µM; in experiment [2], 50 to 100 µM.
Regarding `Cc1cc(-c2ccccc2)cc(C(=O)NNS(=O)(=O)CC2CCNC2)c1F` (stereo not shown) [Compound I-320], the IC50 in experiment [1] and in experiment [2] was 10 to 50 µM in each case.
As to `Cc1cc(-c2ccccc2F)cc(C(=O)NNS(=O)(=O)C2CCCCC2)c1F` [Compound I-321], the IC50 in experiment [1] is ≤ 10 µM; in experiment [2] it was 10 to 50 µM.
`CC(=O)N1CCCC(CS(=O)(=O)NNC(=O)c2cc(-c3ccccc3)cc(C)c2F)C1` (stereo not shown) [Compound I-322]: the IC50 in experiment [1] and in experiment [2] was ≤ 10 µM throughout.
For `Cc1cc(-c2cccc(F)c2)cc(C(=O)NNS(=O)(=O)C2CCCCC2)c1F` [Compound I-323], the IC50 in experiment [1] and in experiment [2] was ≤ 10 µM throughout.
As for `Cc1cccc(-c2cc(C)c(F)c(C(=O)NNS(=O)(=O)C3CCCCC3)c2)c1` [Compound I-325], the figures for the half-inhibitory concentration (IC50) in experiment [1] and in experiment [2] were ≤ 10 µM and 10 to 50 µM, respectively.
The like results for `Cc1cccc(-c2cc(C)c(F)c(C(=O)NNS(=O)(=O)c3ccccc3)c2)c1` [Compound I-326] were, in that order, ≤ 10 µM and ≤ 10 µM.
